# Experiments:
# [1] = Bioavailability and plasma concentration after midazolam from the bi-dose nasal spray
# [2] = aqueous solution, depending on content of active agent; cited from earlier work
# [3] = nasal administration, no first pass effect; cited from earlier work
# claustrophobic patients = conditions: cited from earlier work
smiles,measurement,setting,value
"Cc1ncc2n1-c1ccc(Cl)cc1C(c1ccccc1F)=NC2 [midazolam, 8-chloro-6-(2-fluorophenyl)-1-methyl-4H-imidazole[1,5-a][1,4]-benzodiazepine]",time after administration at which a significant plasma concentration is achieved,"[1]; bi-dose nasal spray, intranasal",2 min
same,bioavailability,"[1]; human, plasma, inhaled or intranasal",> 83%
same,pH below which the solution of the active agent is stable (precipitates at higher pH),[2],< 3.8 pH
same,bioavailability using a nasal spray,[3],about 80%
same,MRI examinations carried out successfully and without relevant side effects,"claustrophobic patients; 72 patients, oral 7.5 mg (TG1) or intranasal 1.0 to 2.0 mg (TG2)",97%
same,"MRI imaging quality, intranasal group TG2 compared to oral group TG1","claustrophobic patients; intranasal 1-2 mg versus oral 7.5 mg, p<0.001",significantly higher
same,anxiolytic effect of nasally administered versus orally administered form,claustrophobic patients; intranasal 1-2 mg versus oral 7.5 mg,significantly superior

# From patent US12239780B2, “Bi-dose nasal spray” (AKROSWISS AG, priority 2018, dated 2025)
